# Laboratory results: patent US9890166B2, “Imidazopyrrolidine derivatives and their use in the treatment of disease” (NOVARTIS AG, priority 2013, dated 2018)
# Assays:
# [1] = target: BRD2 (His-Brd2(60-472)) (Homo sapiens (Human), UniProt P25440); assay: TR-FRET in-vitro binding assay for BRD2; details: single determination or n ≧ 2 independent determinations, read-out: Biochemical IC50 BRD2
# Description: (§1) TR-FRET In-Vitro Binding Assays for BRD2, BRD3, and BRD4:
# (§2) All assays were performed in 384 well microtiter plates. Each assay plate contained 8-point serial dilutions for 40 test compounds, plus 16 high- and 16 low controls. Liquid handling and incubation steps were done on an Innovadyne Nanodrop Express equipped with a robotic arm (Thermo CatX, Perkin Elmer/Caliper Twister II) and an incubator (Liconic STX40, Thermo Cytomat 2C450). The assay plates were prepared by addition of 50 nl per well of compound solution in 90% DMSO HummingBird nanodispenser (Zinsser Analytic). […] Reactions were incubated at 30° C. for 35 minutes. […] After 35 minutes incubation at 30° C., plates were measured in a Perkin Elmer EnVision multilabel reader.
# (§3) Preparation of Compound Dilutions
# (§4) Test compounds were dissolved in DMSO (10 mM) and transferred into 1.4 mL flat bottom or V-shaped Matrix tubes carrying a unique 2D matrix. The stock solutions were stored at […] if not used immediately. For the test procedure the vials were defrosted and identified by a scanner whereby a working sheet was generated that guided the subsequent working steps.
# (§5) Compound dilutions were made in 96 well plates. This format enabled the assay of maximally 40 individual test compounds at 8 concentrations (single points) including 4 reference compounds, if desired (known BET inhibitors from the prior art, for this and other assays of the type disclosed herein). The dilution protocol included the production of “pre-dilution plates”, “master plates” and “assay plates”.
# (§6) Pre-Dilution Plates: 96 polypropylene well plates were used as pre-dilution plates. A total of 4 pre-dilution plates were prepared including 10 test compounds each on the plate positions A1-A10, one standard compound at A11 and one DMSO control at A12. All dilution steps were done on a HamiltonSTAR robot.
# (§7) These plates were used directly for the assay which was performed in a total volume of 13.55 μL.
# [2] = tested on: K-562 cells; assay: Cell growth inhibition assay (CellTiter-Glo), K-562; details: for GI50: Homo sapiens, K562, read-out: K-562 GI50; for K-562 TGI: K-562 cells, total growth inhibition, CellTiter-Glo;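 on all read-outs here: cellular ATP measured by luminescence after 4 days of exposure, 3-fold dilution series from 10 µM, DMSO vehicle-treated cells define 100%, cell-free medium wells −100%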
# [3] = tested on: THP-1 cells; assay: Cell growth inhibition assay (CellTiter-Glo), THP-1; details: for GI50: Homo sapiens, THP-1, read-out: THP-1 GI50; for THP-1 TGI: THP-1 cells, total growth inhibition, CellTiter-Glo;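 on all read-outs here: viability read as cellular ATP luminescence after 4 days, 3-fold dilution series from 10 µM, DMSO vehicle-treated cells taken as 100%, cell-free medium wells as −100%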
# [4] = tested on: MV-4-11 cells; assay: Cell growth inhibition assay (CellTiter-Glo), MV-4-11; details: for GI50: Homo sapiens, MV4-11, read-out: MV-4-11 GI50; for MV-4-11 TGI: MV-4-11 cells, total growth inhibition, CellTiter-Glo;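 on all read-outs here: cellular ATP luminescence after 4 days, 3-fold dilution series from 10 µM top dose, vehicle (0.1% DMSO) set to 100%, cell-free medium set to −100%, day 0 corrected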
# [5] = target: BRD3 (His-Brd3(20-477)) (Homo sapiens (Human), UniProt Q15059); assay: TR-FRET in-vitro binding assay for BRD3; details: single determination or n ≧ 2 independent determinations, read-out: Biochemical IC50 BRD3
# Description: as §1, §2, §3, §4, §5, §6, §7
# [6] = target: CREBBP bromodomain (His-CREBBP(1081-1197)) (Homo sapiens (Human), UniProt Q92793); assay: AlphaScreen in-vitro binding assay for CREBBP; details: single determination or n ≧ 2 independent determinations, read-out: Biochemical IC50 CREBBP
# Description: AlphaScreen In-Vitro Binding Assay for CREBBP
# In order to assess bromodomain selectivity, we set up a binding assay using the bromodomain encoded by the CREBBP gene. […] Reactions were incubated at 30° C. for 35 minutes. Subsequently 4.5 μl per well detection mix (50 mM HEPES, pH 7.5, 0.005% Tween20, 0.02% BSA, 150 mM NaCl, 45 μg/ml Ni-chelate acceptor beads, 45 μg/mIstreptavidin-donor beads) (Perkin Elmer)) were added. After 60 minutes incubation at room temperature, plates were measured in a Perkin Elmer EnVision multilabel reader. IC50 values were determined from percent inhibition values at different compound concentrations by non-linear regression analysis.
# as §3, §4, §5, §6, §7
# [7] = target: BRD4 (His-Brd4(44-477)) (Homo sapiens (Human), UniProt O60885); assay: TR-FRET in-vitro binding assay for BRD4; details: single determination or n ≧ 2 independent determinations, read-out: Biochemical IC50 BRD4
# Description: as §1, §2, §3, §4, §5, §6, §7
# Sequence of CREBBP bromodomain (His-CREBBP(1081-1197)) (Q92793 1081-1197): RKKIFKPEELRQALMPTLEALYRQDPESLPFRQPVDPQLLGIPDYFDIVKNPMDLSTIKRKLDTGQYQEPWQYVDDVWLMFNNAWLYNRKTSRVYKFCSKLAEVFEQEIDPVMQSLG
# Sequence of BRD2 (His-Brd2(60-472)) (P25440 60-472): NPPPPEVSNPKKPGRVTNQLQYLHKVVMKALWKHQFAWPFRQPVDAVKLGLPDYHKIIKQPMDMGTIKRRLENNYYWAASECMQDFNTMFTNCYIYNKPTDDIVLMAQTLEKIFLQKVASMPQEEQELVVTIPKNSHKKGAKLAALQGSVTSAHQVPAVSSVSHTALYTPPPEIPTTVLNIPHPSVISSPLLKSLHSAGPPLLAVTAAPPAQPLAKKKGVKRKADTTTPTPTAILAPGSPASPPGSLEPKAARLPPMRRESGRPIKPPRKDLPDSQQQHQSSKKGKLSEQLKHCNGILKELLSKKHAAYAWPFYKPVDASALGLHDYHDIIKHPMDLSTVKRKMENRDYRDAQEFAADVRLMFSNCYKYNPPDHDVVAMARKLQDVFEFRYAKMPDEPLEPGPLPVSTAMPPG
# Sequence of BRD3 (His-Brd3(20-477)) (Q15059 20-477): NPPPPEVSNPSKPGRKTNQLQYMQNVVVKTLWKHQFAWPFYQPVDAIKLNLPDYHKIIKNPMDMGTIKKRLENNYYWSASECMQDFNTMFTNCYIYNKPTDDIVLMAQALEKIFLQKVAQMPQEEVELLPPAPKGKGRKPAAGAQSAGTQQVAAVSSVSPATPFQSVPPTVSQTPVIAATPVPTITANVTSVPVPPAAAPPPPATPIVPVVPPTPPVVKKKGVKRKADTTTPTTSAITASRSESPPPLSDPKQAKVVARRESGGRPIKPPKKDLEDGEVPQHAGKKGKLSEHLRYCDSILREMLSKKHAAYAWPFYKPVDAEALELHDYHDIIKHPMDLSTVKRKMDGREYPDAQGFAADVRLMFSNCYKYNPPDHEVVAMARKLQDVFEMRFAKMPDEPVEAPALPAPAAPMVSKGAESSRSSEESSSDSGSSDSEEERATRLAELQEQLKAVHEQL
SMILES,IC50 [1] [nM],GI50 [2] [nM],K-562 TGI [2] [µM],GI50 [3] [nM],THP-1 TGI [3] [µM],GI50 [4] [nM],MV-4-11 TGI [4] [µM],IC50 [5] [nM],IC50 [6] [nM],IC50 [7] [nM]
COc1cc(N2C(=O)c3nc(C4CCOCC4)n(C(C)C)c3C2c2ccc(Cl)cc2)cc2c1nnn2C (racemic) [Example 64],120,156,>10,84.3,0.155,35.1,0.0546,58,10200,43
"COc1ncccc1-c1nc2c(n1C(C)C)C(c1ccc(Cl)cc1)N(c1cc(OC)c3nnn(C)c3c1)C2=O (racemic) [Example 74, 6-(4-chlorophenyl)-1-isopropyl-5-(4-methoxy-1-methyl-1H-benzo[d][1,2,3]triazol-6-yl)-2-(2-methoxypyridin-3-yl)-5,6-dihydropyrrolo[3,4-d]imidazol-4(1H)-one]",140,158,>10,57.9,0.121,38.2,0.05925,61,10300,32
"CC(C)n1c(-c2ccccn2)nc2c1C(c1ccc(Cl)cc1)N(c1ccc(=O)n(C)c1)C2=O (centres unmarked) [Example 20, 6-(4-chlorophenyl)-1-isopropyl-5-(1-methyl-6-oxo-1,6-dihydropyridin-3-yl)-2-(Pyridin-2-yl)-5,6-dihydropyrrolo[3,4-d]imidazol-4(1H)-one]",710,,,,,,,610,24600,630
"CC(C)n1c(-c2ccnn2C)nc2c1C(c1ccc(Cl)cc1)N(c1ccc(=O)n(C)c1)C2=O (centres unmarked) [Example 21, 6-(4-chlorophenyl)-1-isopropyl-2-(1-methyl-1H-pyrazol-5-yl)-5-(1-methyl-6-oxo-1,6-dihydropyridin-3-yl)-5,6-dihydropyrrolo[3,4-d]imidazol-4(1H)-one]",1100,,,,,,,840,34800,772
"CC(C)n1c(-c2ccn(C)n2)nc2c1C(c1ccc(Cl)cc1)N(c1ccc(=O)n(C)c1)C2=O (centres unmarked) [Example 22, 6-(4-chlorophenyl)-1-isopropyl-2-(1-methyl-1H-pyrazol-3-yl)-5-(1-methyl-6-oxo-1,6-dihydropyridin-3-yl)-5,6-dihydropyrrolo[3,4-d]imidazol-4(1H)-one]",607,,,,,,,603,> 37000,495
"Cc1cc(N2C(=O)c3nc(-c4nccs4)n(C(C)C)c3[C@H]2c2ccc(Cl)cc2)cn(C)c1=O [Example 24, (R)-6-(4-chlorophenyl)-5-(1,5-dimethyl-6-oxo-1,6-dihydropyridin-3-yl)-1-isopropyl-2-(thiazol-2-yl)-5,6-dihydropyrrolo[3,4-d]imidazol-4(1H)-one]",30,,,,,,,41.5,455,42.5
"Cc1ncc(-c2nc3c(n2C(C)C)C(c2ccc(Cl)cc2)N(c2cc(C)c(=O)n(C)c2)C3=O)s1 (centres unmarked) [Example 29, 6-(4-chlorophenyl)-5-(1,5-dimethyl-6-oxo-1,6-dihydropyridin-3-yl)-1-isopropyl-2-(2-methylthiazol-5-yl)-5,6-dihydropyrrolo[3,4-d]imidazol-4(1H)-one]",81,,,,,,,100,800,110
"Cc1cc(N2C(=O)c3nc(-c4ccc[nH]4)n(C(C)C)c3C2c2ccc(Cl)cc2)cn(C)c1=O (centres unmarked) [Example 30, 6-(4-chlorophenyl)-5-(1,5-dimethyl-6-oxo-1,6-dihydropyridin-3-yl)-1-isopropyl-2-(1H-pyrrol-2-yl)-5,6-dihydropyrrolo[3,4-d]imidazol-4(1H)-one]",92,,,,,,,100,1000,120
"Cc1cc(N2C(=O)c3nc(C4CCCC4)n(C(C)C)c3C2c2ccc(Cl)cc2)cn(C)c1=O (centres unmarked) [Example 31, 6-(4-chlorophenyl)-2-cyclopentyl-5-(1,5-dimethyl-6-oxo-1,6-dihydropyridin-3-yl)-1-isopropyl-5,6-dihydropyrrolo[3,4-d]imidazol-4(1H)-one]",45,349,>10,79.4,0.125,36.4,0.0599,37,,47
"Cc1cc(N2C(=O)c3nc(C4CC4)n(C(C)(C)C)c3C2c2ccc(Cl)cc2)cn(C)c1=O (centres unmarked) [Example 33, 1-(tert-butyl)-6-(4-chlorophenyl)-2-cyclopropyl-5-(1,5-dimethyl-6-oxo-1,6-dihydropyridin-3-yl)-5,6-dihydropyrrolo[3,4-d]imidazol-4(1H)-one]",65,,,,,,,66,510,100
"COc1ncccc1-c1nc2c(n1C(C)C)C(=O)N(c1cc(C)c(=O)n(C)c1)C2c1ccc(Cl)cc1 (centres unmarked) [Example 44, 6-(4-chlorophenyl)-5-(1,5-dimethyl-6-oxo-1,6-dihydropyridin-3-yl)-3-isopropyl-2-(2-methoxypyridin-3-yl)-5,6-dihydropyrrolo[3,4-d]imidazol-4(3H)-one]",33,,,,,,,39,1000,39
"COc1ncccc1-c1nc2c(n1C(C)C)[C@@H](c1ccc(Cl)cc1)N(c1cc(C)c3nnn(C)c3c1)C2=O [Example 112, (R)-6-(4-chlorophenyl)-5-(1,4-dimethyl-1H-benzo[d][1,2,3]triazol-6-yl)-1-isopropyl-2-(2-methoxypyridin-3-yl)-5,6-dihydropyrrolo[3,4-d]imidazol-4(1H)-one]",13,17.2,>10,4.79,0.00984,1.72,0.00461,< 11,,< 11
"CCn1c(C)nc2c1[C@@H](c1ccc(Cl)cc1)N(c1cc(C)c3nnn(C)c3c1)C2=O [Example 120, (R)-6-(4-chlorophenyl)-5-(3,7-dimethyl-3H-benzo[d][1,2,3]triazol-5-yl)-1-ethyl-2-methyl-5,6-dihydropyrrolo[3,4-d]imidazol-4(1H)-one]",35.5,,,,,,,29.5,5130,20.5
"CCn1c(C)nc2c1C(=O)N(c1cc(C)c3nnn(C)c3c1)[C@@H]2c1ccc(Cl)cc1 [Example 122, (R)-6-(4-chlorophenyl)-5-(3,7-dimethyl-3H-benzo[d][1,2,3]triazol-5-yl)-3-ethyl-2-methyl-5,6-dihydropyrrolo[3,4-d]imidazol-4(3H)-one]",21.5,,,,,,,26,2620,19
"COc1ncccc1-c1nc2c([nH]1)C(c1ccc(Cl)cc1)N(c1cc(C)c3nnc(C)n3c1)C2=O (centres unmarked) [Example 123, 6-(4-chlorophenyl)-5-(3,8-dimethyl-[1,2,4]triazolo[4,3-a]pyridin-6-yl)-2-(2-methoxypyridin-3-yl)-5,6-dihydropyrrolo[3,4-d]imidazol-4(1H)-one]",97,,,,,,,87,5500,65
"COc1ncccc1-c1nc2c([nH]1)[C@@H](c1ccc(Cl)cc1)N(c1cc(C)c3nnc(C)n3c1)C2=O [Example 142, (R)-6-(4-chlorophenyl)-5-(3,8-dimethyl-[1,2,4]triazolo[4,3-a]pyridin-6-yl)-2-(2-methoxypyridin-3-yl)-5,6-dihydropyrrolo[3,4-d]imidazol-4(1H)-one]",96,,,,,,,36,1750,40
